The term IC50 denotes the point on the concentration scale where inhibition reaches its midpoint.

The record followed here is patent US20070191490A1, “Withacnistin compounds for treatment of cancer” (priority 2006, published 2007).

For one assay, the system named is phosphotyrosine-STAT3. Put plainly: Inhibition of phosphotyrosine-STAT3 levels in tumor cell lines (Western blotting). It counts as cell-based, human. The following applies: for levels of P-STAT3: 10 μM, 4 hours; for IC50: Wit tested as withacnistin mixture; for P-STAT3 levels: A549 cells (FIG. 8A); for potency compared with the withacnistin mixture (P-STAT3 suppression): A549 and MDA-MB-468 cells. How it is done:
(§1) Western blotting. Treated cell samples were lysed in 30 mM HEPES, pH 7.5, 10 mM NaCl, 5 mM MgCl2, 25 mM NaF, 1 mM EGTA, 1% Triton X-100, 10% glycerol, 2 mM sodium orthovanadate, 10 μg/ml aprotinin, 10μ/ml soybean trypsin inhibitor, 25 μg/ml leupeptin, 2 mM PMSF, and 6.4 mg/ml p-nitrophenylphosphate. Phospho-STAT3, phospho-AKT, phospho-Src, and phospho-p42/p44 MAPK antibodies were obtained from Cell Signaling Technologies (Cambridge, Mass., USA). Phospho-JNK and whole STAT3 antibodies were purchased from Santa Cruz Biotechnology (Santa Cruz, Calif., USA); phospho-JAK2 antibody came from Upstate Biotechnology (Lake Placid, N.Y., USA). Membranes were blocked in either 5% milk in phosphate-buffered saline (PBS), pH 7.4, containing 0.1% Tween-20 (PBS-T) or 1% BSA in tris-buffered saline (TBS), pH 7.5, containing 0.1% Tween-20 (TBS-T). Phospho-specific antibodies (excepting P-MAPK and P-JNK) were incubated in 1% BSA in TBS-T while all other antibodies were diluted in 5% milk in PBS-T for either 2 h at room temperature or overnight at 4° C. HRP-conjugated secondary antibodies (Jackson ImmunoResearch, West Grove, Pa., USA) were diluted in 5% milk in either PBS-T or TBS-T at 1:1000 dilution for 1 h at room temperature. Western blots were visualized using enhanced chemiluminescence.
(§2) To this end, A549 cells (a human non-small-cell lung carcinoma line) were treated with either vehicle, cucurbitacin analogs A, B, E, or I, or withacnistin mixture (10 ∥M) for 4 hours and the cell lysates processed for Western blotting with antiphosphotyrosine STAT3 (Y705) antibody or antiphosphotyrosine JAK2 (Y1007, Y1008) antibody as described under Materials and Methods.
(§3) As further support of the specific antiphosphotyrosine STAT3, but not antiphosphotyrosine JAK2, activity of withacnistin, A549 cells, as well as two breast carcinoma cell lines (MDA-MB-435 and MDA-MB-468) that also express constitutively activated JAK2 and STAT3, were treated with the withacnistin mixture at various concentrations, and determined IC50 values of inhibition of STAT3 and JAK2 activation.
In general terms: In western blotting, separated proteins are transferred to a membrane and probed.

A further assay has as its system A549 tumors. As to the kind of experiment: TUNEL immunohistochemistry of A549 tumor sections. Format: in vivo, nude mice. The settings on record: 1 mg/kg/day, control 0.4±0.1%. As to the method: TUNEL immunohistochemistry. Tumors were harvested, […], and dewaxed as described for P-STAT3 immunohistochemistry. Tissue sections (5 μm) were digested for 10 minutes with 25 μg/ml proteinase K in PBS and then washed thoroughly. Peroxidases were quenched with 3% hydrogen peroxide in PBS and washed. Sections were equilibrated with equilibration buffer, then incubated in 30% TdT enzymes/70% digoxigenin nucleotidyl reaction buffer for 1 hour at 37° C. in a humidified chamber. The labeling reaction was stopped in stop/wash buffer with moderate shaking. Slides then were placed on the Dako Autostainer and incubated with antidigoxigenin-peroxidase (DakoCytomation California, Inc.) for 30 minutes using DAB substrate. Sections were counterstained with methyl green (Vector Laboratories), dehydrated through ascending alcohol, cleared, and mounted with resinous mounting medium. The quantification was performed by counting both the TUNEL-positive and -negative cells on slides representative of eight tumors and significance was determined by Student's t-test.
To determine whether phosphotyrosine STAT3 is targeted by withacnistin in vivo, and to determine if the results seen in cell culture concerning induction of apoptosis were occurring in tumors from animals treated with withacnistin, on the termination day of the A549 antitumor experiment, tumors from animals treated with Cuc A, Cuc I, and the withacnistin mixture, as well as vehicle control, were extracted and fixed in 10% neutral-buffered formalin and then processed into paraffin blocks for tissue sectioning. These tissue sections were stained separately with either TUNEL for determination of apoptosis, or phosphotyrosine STAT3 to determine if the signaling protein is inhibited in the tumors.

For assay [1], the system named is A549 cells. Put plainly: Trypan blue exclusion assay (tumor cell death). It counts as cell-based, human. The following applies: 10 μM, 24 h. As to the method: In vitro cellular proliferation and TUNEL assays. Subconfluent A549, MDA-MB-435, MDA-MB-453, MDAMB-468, v-Src transformed NIH 3T3 (v-Src/3T3), H-Ras transformed NIH 3T3 (H-Ras/3T3), and vector NIH 3T3 cells were grown in the presence of 10 μM cucurbitacin A, cucurbitacin I, withacnistin mixture, or DMSO vehicle control. After 24 hours, cells were harvested by trypsinization and counted via trypan blue exclusion assay to determine cellular viability. In all, 75,000-150,000 cells (depending on cell line) were then spun onto glass slides using a Cytospin 3 centrifuge (Thermo Shandon Inc., Pittsburgh, Pa., USA). […] TUNELpositive nuclei were counted and compared to DAPI-stained nuclei to determine the percent induction of apoptosis by the different cucurbitacin compounds. Statistical significance between control and treated tumors were evaluated by using Student's t-test.
The next objective was to determine whether the ability of the cucurbitacins and withacnistin to induce apoptosis is dependent on suppression of PJAK2 and/or P-STAT3 levels. To this end, A549 cells were treated with vehicle control, or cucurbitacins (10 μM), or the withacnistin mixture (10 μM) for 24 h, harvested the cells, and determined tumor cell death (trypan blue exclusion) and apoptosis (TUNEL) as described under Materials and methods.

The subject of assay [2] is A549 cells. Put plainly: TUNEL apoptosis assay, A549. The settings on record: for apoptosis (TUNEL): 10 μM, 24 h. Format: cell-based, human. As to the method: In vitro cellular proliferation and TUNEL assays. Subconfluent A549, MDA-MB-435, MDA-MB-453, MDAMB-468, v-Src transformed NIH 3T3 (v-Src/3T3), H-Ras transformed NIH 3T3 (H-Ras/3T3), and vector NIH 3T3 cells were grown in the presence of 10 μM cucurbitacin A, cucurbitacin I, withacnistin mixture, or DMSO vehicle control. After 24 hours, cells were harvested by trypsinization and counted via trypan blue exclusion assay to determine cellular viability. In all, 75,000-150,000 cells (depending on cell line) were then spun onto glass slides using a Cytospin 3 centrifuge (Thermo Shandon Inc., Pittsburgh, Pa., USA). After fixing cells to the slides with 4% paraformaldehyde in PBS, pH 7.5, for 1 h at room temperature, cells were labeled for apoptotic DNA strand breaks by TUNEL reaction using an in situ cell death detection kit (Roche Applied Science, Indianapolis, Ind., USA) according to the manufacturer's instructions, then mounted in Vectashield mounting medium (Vector Laboratories, Burlingame, Calif., USA) containing 4′,6-diamidino-2-phenylindole (DAPI) to counterstain DNA. Fluorescein-labeled DNA strand breaks (TUNEL-positive cells) were then visualized using a fluorescent microscope (Leica Microsystems Inc., Bannockburn, Ill., USA) and pictures taken with a digital camera (Diagnostic Instruments, Inc., Sterling Heights, Mich., USA). TUNELpositive nuclei were counted and compared to DAPI-stained nuclei to determine the percent induction of apoptosis by the different cucurbitacin compounds. Statistical significance between control and treated tumors were evaluated by using Student's t-test.
The next objective was to determine whether the ability of the cucurbitacins and withacnistin to induce apoptosis is dependent on suppression of PJAK2 and/or P-STAT3 levels. To this end, A549 cells were treated with vehicle control, or cucurbitacins (10 μM), or the withacnistin mixture (10 μM) for 24 h, harvested the cells, and determined tumor cell death (trypan blue exclusion) and apoptosis (TUNEL) as described under Materials and methods. […]

Another assay concerns phosphotyrosine-JAK2. As to the kind of experiment: Inhibition of phosphotyrosine-JAK2 levels in tumor cell lines (Western blotting). It counts as cell-based, human. The settings on record: for levels of P-JAK2: 10 μM, 4 hours; for IC50: Wit tested as withacnistin mixture; for P-JAK2 levels: A549 cells (FIG. 8A). As to the method: as §1, §2, §3

Entries after “also recorded” stand apart in the source; their conditions may differ.

As to `CC(=O)OC(C)(C)/C=C/C(=O)[C@](C)(O)[C@H]1[C@H](O)C[C@@]2(C)[C@@H]3CC=C4[C@@H](C[C@H](O)C(=O)C4(C)C)[C@]3(CO)C(=O)C[C@]12C` [Cuc A, cucurbitacin A], the “levels of P-STAT3” value in the assay with phosphotyrosine-STAT3 (A549 cells) is given as “had no effect; also recorded: little inhibitory activity”. The IC50 in the assay with phosphotyrosine-STAT3 (A549 cells) was over 10000 nM; in the assay with phosphotyrosine-STAT3 (MDA-MB-435 cells), over 10000 nM; in the assay with phosphotyrosine-STAT3 (MDA-MB-468 cells), over 10000 nM; in the assay with phosphotyrosine-JAK2 (A549 cells), 1500 ± 700 nM; in the assay with phosphotyrosine-JAK2 (MDA-MB-435 cells), 650 ± 50 nM; with phosphotyrosine-JAK2 (MDA-MB-468 cells) it was 860 nM. Besides, in the assay with A549 tumors, the TUNEL-positive cells is 0.3±0.2%. In addition, in the assay on A549 cells [1], the “tumor cell death (trypan blue exclusion)” value was determined as 11%. The “apoptosis (TUNEL)” value with A549 cells [2] was determined as 5%. For the same compound, the “levels of P-JAK2” value in the assay with phosphotyrosine-JAK2 (A549 cells) is “suppressed; also recorded: potently inhibited”.

Regarding `CC(C)(O)/C=C/C(=O)[C@](C)(O)[C@H]1[C@H](O)C[C@@]2(C)[C@@H]3CC=C4[C@@H](C=C(O)C(=O)C4(C)C)[C@]3(C)C(=O)C[C@]12C` [Cuc I, cucurbitacin I], the P-STAT3 levels result with phosphotyrosine-STAT3 is recorded as “suppressed the levels of both”. The “levels of P-STAT3” value in the assay on phosphotyrosine-STAT3 (A549 cells) is “inhibited”. In addition, the IC50 in the assay on phosphotyrosine-STAT3 (A549 cells) amounted to 800 ± 700 nM; in the assay with phosphotyrosine-STAT3 (MDA-MB-435 cells), 4600 ± 1900 nM; with phosphotyrosine-STAT3 (MDA-MB-468 cells), 7500 ± 1500 nM; in the assay with phosphotyrosine-JAK2 (A549 cells), 250 ± 90 nM; in the assay with phosphotyrosine-JAK2 (MDA-MB-435 cells) it was 180 ± 70 nM; with phosphotyrosine-JAK2 (MDA-MB-468 cells), 400 ± 260 nM. In addition, the TUNEL-positive cells in the assay on A549 tumors was determined as 10.5±3.0%. In addition, the P-JAK2 levels entry with phosphotyrosine-JAK2 is “suppressed the levels of both”. Besides, in the assay on phosphotyrosine-JAK2 (A549 cells), the “levels of P-JAK2” value is “inhibited”.

On to `CC(=O)OC[C@]12CC[C@H]3[C@@H](C[C@H]4O[C@]45[C@@H](O)C=CC(=O)[C@]35C)[C@@H]1CC[C@@H]2[C@H](C)[C@H]1CC(C)=C(C)C(=O)O1` [withacnistin], for which, in the assay on phosphotyrosine-STAT3 (A549 and MDA-MB468 cells, 4-hour treatment (FIGS. 7A, 7B)), the P-STAT3 entry was “inhibit”. The “potency compared with the withacnistin mixture (P-STAT3 suppression)” value is “slightly more potent than WM” in the assay on phosphotyrosine-STAT3 (listed as W) and “more potent than the withacnistin mixture” with phosphotyrosine-STAT3 (listed as pure withacnistin). Besides, the P-STAT3 levels result in the assay with phosphotyrosine-STAT3 is given as “suppressed”. Moreover, the IC50 is 3700 ± 1700 nM in the assay with phosphotyrosine-STAT3 (A549 cells); 900 ± 600 nM with phosphotyrosine-STAT3 (MDA-MB-435 cells); 1400 ± 700 nM with phosphotyrosine-STAT3 (MDA-MB-468 cells); over 10000 nM with phosphotyrosine-JAK2 (A549 cells); over 10000 nM in the assay with phosphotyrosine-JAK2 (MDA-MB-435 cells); over 10000 nM in the assay on phosphotyrosine-JAK2 (MDA-MB-468 cells). This compound also yielded a TUNEL-positive cells with A549 tumors of 14.3±2.7%. Moreover, in the assay on A549 cells [1], the “tumor cell death (trypan blue exclusion)” value was 60%. The “increase of percentage of apoptotic tumor cells compared to vehicle-treated control” value in the assay with A549 cells [2] (10 μM withacnistin mixture, 24 hours) was 27.4 fold. The “apoptosis (TUNEL)” value in the assay on A549 cells [2] came to 28%. Also, the P-JAK2 levels entry in the assay with phosphotyrosine-JAK2 is given as “but not P-JAK2”.
